In publication PMC7265341, “Quantifying CDK inhibitor selectivity in live cells” (Nature Communications, 2020):
Like-named read-outs stand apart in the source and are kept apart here.

Legend:
CDK1/Cyclin E1 = CDK1/Cyclin E1 (Homo sapiens, UniProt P06493); experiment: NanoBRET live-cell target engagement, CDK1-NanoLuc/Cyclin E1 in HEK-293; type: binding; settings: 10µM
CDK16/Cyclin Y = CDK16/Cyclin Y (Homo sapiens, UniProt Q00536); experiment: NanoBRET live-cell target engagement, CDK16-NanoLuc/Cyclin Y in HEK-293; type: binding; settings: 10µM
CDK18/Cyclin Y = CDK18/Cyclin Y (Homo sapiens, UniProt Q07002); experiment: NanoBRET live-cell target engagement, CDK18-NanoLuc/Cyclin Y in HEK-293; type: binding; settings: 10µM
CDK5/CDK5R1 = CDK5/CDK5R1 (Homo sapiens, UniProt Q00535); experiment: NanoBRET live-cell target engagement, CDK5-NanoLuc/CDK5R1 in HEK-293; type: binding; settings: 10µM
CDK14/Cyclin Y = CDK14/Cyclin Y (Homo sapiens, UniProt O94921); experiment: NanoBRET live-cell target engagement, CDK14-NanoLuc/Cyclin Y in HEK-293; type: binding; settings: 10µM
CDK6/Cyclin D1 = CDK6/Cyclin D1 (Homo sapiens, UniProt Q00534); experiment: NanoBRET live-cell target engagement, NanoLuc-CDK6/Cyclin D1 in HEK-293; type: binding; settings: 10µM
CDK9/Cyclin K = CDK9/Cyclin K (Homo sapiens, UniProt P50750); experiment: NanoBRET live-cell target engagement, NanoLuc-CDK9/Cyclin K in HEK-293; type: binding; settings: 10µM
CDK12/Cyclin K = CDK12/Cyclin K (Homo sapiens, UniProt Q9NYV4); experiment: NanoBRET live-cell target engagement, CDK12-NanoLuc/Cyclin K in HEK-293; type: binding; settings: 10µM
CDK7 = CDK7 (Homo sapiens, UniProt P50613); experiment: NanoBRET live-cell target engagement, NanoLuc-CDK7 in HEK-293; type: binding; settings: 10µM
CDK19/Cyclin C = CDK19/Cyclin C (Homo sapiens, UniProt Q9BWU1); experiment: NanoBRET live-cell target engagement, NanoLuc-CDK19/Cyclin C in HEK-293
CDK4/Cyclin D1 = CDK4/Cyclin D1 (Homo sapiens, UniProt P11802); experiment: NanoBRET live-cell target engagement, NanoLuc-CDK4/Cyclin D1 in HEK-293; type: binding; settings: 10µM
CDK3/Cyclin E1 = CDK3/Cyclin E1 (Homo sapiens, UniProt Q00526); experiment: NanoBRET live-cell target engagement, CDK3-NanoLuc/Cyclin E1 in HEK-293; type: binding; settings: 10µM
CDK11A/Cyclin L2 = target: T1, CDK11A/Cyclin L2 (Homo sapiens, UniProt Q9UQ88); experiment: NanoBRET live-cell target engagement, CDK11A-NanoLuc/Cyclin L2 in HEK-293; type: binding; settings: 10µM
T1 sequence (Q9UQ88 1-783): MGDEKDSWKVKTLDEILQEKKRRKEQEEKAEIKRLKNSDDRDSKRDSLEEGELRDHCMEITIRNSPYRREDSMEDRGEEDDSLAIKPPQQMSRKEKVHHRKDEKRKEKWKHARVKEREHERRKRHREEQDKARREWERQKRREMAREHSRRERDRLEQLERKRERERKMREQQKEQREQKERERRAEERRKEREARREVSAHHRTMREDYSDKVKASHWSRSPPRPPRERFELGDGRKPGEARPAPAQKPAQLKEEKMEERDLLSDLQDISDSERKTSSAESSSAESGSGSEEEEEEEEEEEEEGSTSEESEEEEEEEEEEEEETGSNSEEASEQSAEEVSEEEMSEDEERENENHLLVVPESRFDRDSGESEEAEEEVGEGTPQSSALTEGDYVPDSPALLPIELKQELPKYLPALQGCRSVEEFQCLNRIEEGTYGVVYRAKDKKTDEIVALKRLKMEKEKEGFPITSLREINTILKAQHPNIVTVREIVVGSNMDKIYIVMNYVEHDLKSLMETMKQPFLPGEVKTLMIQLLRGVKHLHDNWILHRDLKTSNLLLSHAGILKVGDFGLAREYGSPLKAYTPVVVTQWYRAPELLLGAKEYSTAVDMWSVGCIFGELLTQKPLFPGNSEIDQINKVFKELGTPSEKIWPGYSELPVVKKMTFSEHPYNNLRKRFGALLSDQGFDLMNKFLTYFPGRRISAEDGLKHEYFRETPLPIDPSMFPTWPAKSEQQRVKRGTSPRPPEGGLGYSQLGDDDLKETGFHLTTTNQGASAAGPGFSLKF

CDK2/Cyclin E1 = CDK2/Cyclin E1 (Homo sapiens, UniProt P24941); experiment: NanoBRET live-cell target engagement, CDK2-NanoLuc/Cyclin E1 in HEK-293; type: binding; settings: 10µM
CDK13/Cyclin K = CDK13/Cyclin K (Homo sapiens, UniProt Q14004); experiment: NanoBRET live-cell target engagement, CDK13-NanoLuc/Cyclin K in HEK-293; type: binding; settings: 10µM
CDK15/Cyclin Y = CDK15/Cyclin Y (Homo sapiens, UniProt Q96Q40); experiment: NanoBRET live-cell target engagement, NanoLuc-CDK15/Cyclin Y in HEK-293; type: binding; settings: 10µM
CDK10/Cyclin L2 = CDK10/Cyclin L2 (Homo sapiens, UniProt Q15131); experiment: NanoBRET live-cell target engagement, CDK10-NanoLuc/Cyclin L2 in HEK-293; settings: 10µM
CDK11B/Cyclin L2 = CDK11B/Cyclin L2 (Homo sapiens, UniProt P21127); experiment: NanoBRET live-cell target engagement, CDK11B-NanoLuc/Cyclin L2 in HEK-293; type: binding; settings: 10µM
CDK8/Cyclin C = CDK8/Cyclin C (Homo sapiens, UniProt P49336); experiment: NanoBRET live-cell target engagement, NanoLuc-CDK8/Cyclin C in HEK-293; type: binding; settings: for IC50: read-out: CDK8/C IC50
CDK17/Cyclin Y = CDK17/Cyclin Y (Homo sapiens, UniProt Q00537); experiment: NanoBRET live-cell target engagement, CDK17-NanoLuc/Cyclin Y in HEK-293; type: binding; settings: 10µM
CDK20/Cyclin H = CDK20/Cyclin H (Homo sapiens, UniProt Q8IZL9); experiment: NanoBRET live-cell target engagement, NanoLuc-CDK20/Cyclin H in HEK-293; type: binding; settings: 10µM

Chain of CDK5/CDK5R1 (Q00535 whole entry): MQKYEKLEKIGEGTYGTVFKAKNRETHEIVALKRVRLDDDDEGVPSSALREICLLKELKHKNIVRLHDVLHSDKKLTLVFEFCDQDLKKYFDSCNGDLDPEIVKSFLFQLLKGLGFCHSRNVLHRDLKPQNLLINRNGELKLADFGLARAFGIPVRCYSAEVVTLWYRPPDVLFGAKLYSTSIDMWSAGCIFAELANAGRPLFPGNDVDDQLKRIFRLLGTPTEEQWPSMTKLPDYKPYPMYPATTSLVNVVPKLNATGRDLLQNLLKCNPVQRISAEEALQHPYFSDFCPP
Chain of CDK5/CDK5R1 (Q15078 whole entry partner): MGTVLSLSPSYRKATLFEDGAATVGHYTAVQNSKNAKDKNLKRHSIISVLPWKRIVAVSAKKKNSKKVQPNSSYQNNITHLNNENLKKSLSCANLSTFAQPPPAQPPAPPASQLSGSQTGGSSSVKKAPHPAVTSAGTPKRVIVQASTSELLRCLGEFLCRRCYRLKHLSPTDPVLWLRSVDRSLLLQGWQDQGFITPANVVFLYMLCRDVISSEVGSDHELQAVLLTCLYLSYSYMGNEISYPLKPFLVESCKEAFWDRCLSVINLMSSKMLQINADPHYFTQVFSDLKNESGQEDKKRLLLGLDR
Chain of CDK1/Cyclin E1 (P06493 whole entry): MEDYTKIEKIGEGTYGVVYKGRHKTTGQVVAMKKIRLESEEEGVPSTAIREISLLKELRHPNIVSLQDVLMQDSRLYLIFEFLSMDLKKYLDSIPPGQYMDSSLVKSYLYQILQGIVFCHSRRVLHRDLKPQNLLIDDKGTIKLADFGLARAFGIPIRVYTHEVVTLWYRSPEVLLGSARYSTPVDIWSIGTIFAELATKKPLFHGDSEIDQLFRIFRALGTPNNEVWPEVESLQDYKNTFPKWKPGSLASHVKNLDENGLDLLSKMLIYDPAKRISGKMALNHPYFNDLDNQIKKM
Chain of CDK1/Cyclin E1 (P24864 whole entry partner): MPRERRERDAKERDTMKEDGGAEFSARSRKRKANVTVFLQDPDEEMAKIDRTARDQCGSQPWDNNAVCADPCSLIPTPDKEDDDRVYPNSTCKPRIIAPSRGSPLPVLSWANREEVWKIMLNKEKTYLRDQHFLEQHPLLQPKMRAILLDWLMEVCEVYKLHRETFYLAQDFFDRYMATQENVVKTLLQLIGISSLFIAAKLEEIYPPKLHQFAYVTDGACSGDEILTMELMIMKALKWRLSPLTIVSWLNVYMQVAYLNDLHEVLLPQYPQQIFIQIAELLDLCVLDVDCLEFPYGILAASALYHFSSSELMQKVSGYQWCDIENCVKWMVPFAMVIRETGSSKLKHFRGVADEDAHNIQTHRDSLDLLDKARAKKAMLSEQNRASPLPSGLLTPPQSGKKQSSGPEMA
Chain of CDK14/Cyclin Y (O94921 whole entry): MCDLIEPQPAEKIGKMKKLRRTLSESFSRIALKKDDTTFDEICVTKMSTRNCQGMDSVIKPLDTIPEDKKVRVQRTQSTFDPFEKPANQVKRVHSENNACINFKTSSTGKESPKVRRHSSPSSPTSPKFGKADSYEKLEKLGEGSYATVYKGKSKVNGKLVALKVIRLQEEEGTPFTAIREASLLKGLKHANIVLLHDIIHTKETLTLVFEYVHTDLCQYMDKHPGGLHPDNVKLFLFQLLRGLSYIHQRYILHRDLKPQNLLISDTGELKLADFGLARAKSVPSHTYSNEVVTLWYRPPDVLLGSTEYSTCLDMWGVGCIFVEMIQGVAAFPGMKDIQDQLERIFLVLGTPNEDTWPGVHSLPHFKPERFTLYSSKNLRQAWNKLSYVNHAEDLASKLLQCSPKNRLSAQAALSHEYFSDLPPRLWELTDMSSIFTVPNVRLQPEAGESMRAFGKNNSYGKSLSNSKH
Chain of CDK14/Cyclin Y (Q8ND76 whole entry partner): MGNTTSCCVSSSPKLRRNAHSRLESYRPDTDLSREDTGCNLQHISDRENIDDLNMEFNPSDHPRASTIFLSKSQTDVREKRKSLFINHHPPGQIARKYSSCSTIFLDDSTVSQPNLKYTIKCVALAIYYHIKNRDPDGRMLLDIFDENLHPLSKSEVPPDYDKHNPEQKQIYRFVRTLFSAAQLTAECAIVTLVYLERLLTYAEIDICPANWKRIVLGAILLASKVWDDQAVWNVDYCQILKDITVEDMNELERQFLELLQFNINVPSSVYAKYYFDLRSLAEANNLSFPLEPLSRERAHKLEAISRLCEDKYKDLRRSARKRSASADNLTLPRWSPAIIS
Chain of CDK7 (P50613 whole entry): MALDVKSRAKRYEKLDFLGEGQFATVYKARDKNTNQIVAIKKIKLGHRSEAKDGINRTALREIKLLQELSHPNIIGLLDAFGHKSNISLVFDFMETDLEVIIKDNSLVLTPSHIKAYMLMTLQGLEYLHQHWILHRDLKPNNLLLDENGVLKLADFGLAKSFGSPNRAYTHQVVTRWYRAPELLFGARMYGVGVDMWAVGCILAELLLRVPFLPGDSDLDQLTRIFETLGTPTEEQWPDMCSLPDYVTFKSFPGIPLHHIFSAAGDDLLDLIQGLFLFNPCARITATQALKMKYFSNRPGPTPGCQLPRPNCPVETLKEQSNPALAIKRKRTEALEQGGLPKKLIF
Chain of CDK13/Cyclin K (O75909 whole entry): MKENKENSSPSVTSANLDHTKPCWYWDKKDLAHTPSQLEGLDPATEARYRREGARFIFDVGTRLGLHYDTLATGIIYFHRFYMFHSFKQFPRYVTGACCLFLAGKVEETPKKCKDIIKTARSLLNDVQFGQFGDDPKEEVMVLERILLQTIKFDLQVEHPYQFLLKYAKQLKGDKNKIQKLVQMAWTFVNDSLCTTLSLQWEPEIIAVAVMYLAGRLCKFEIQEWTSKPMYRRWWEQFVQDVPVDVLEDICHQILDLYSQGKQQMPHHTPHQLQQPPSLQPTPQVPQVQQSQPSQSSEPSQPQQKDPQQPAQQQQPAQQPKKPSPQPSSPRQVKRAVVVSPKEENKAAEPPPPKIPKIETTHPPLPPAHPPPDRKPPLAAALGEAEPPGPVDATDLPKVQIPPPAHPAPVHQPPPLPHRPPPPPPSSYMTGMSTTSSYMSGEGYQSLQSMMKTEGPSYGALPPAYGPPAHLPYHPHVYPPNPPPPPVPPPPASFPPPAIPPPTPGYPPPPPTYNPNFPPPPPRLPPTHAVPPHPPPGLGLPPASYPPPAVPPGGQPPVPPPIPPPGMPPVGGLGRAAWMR
Chain of CDK13/Cyclin K (Q14004 other isoform, or with tags, fused parts or gaps): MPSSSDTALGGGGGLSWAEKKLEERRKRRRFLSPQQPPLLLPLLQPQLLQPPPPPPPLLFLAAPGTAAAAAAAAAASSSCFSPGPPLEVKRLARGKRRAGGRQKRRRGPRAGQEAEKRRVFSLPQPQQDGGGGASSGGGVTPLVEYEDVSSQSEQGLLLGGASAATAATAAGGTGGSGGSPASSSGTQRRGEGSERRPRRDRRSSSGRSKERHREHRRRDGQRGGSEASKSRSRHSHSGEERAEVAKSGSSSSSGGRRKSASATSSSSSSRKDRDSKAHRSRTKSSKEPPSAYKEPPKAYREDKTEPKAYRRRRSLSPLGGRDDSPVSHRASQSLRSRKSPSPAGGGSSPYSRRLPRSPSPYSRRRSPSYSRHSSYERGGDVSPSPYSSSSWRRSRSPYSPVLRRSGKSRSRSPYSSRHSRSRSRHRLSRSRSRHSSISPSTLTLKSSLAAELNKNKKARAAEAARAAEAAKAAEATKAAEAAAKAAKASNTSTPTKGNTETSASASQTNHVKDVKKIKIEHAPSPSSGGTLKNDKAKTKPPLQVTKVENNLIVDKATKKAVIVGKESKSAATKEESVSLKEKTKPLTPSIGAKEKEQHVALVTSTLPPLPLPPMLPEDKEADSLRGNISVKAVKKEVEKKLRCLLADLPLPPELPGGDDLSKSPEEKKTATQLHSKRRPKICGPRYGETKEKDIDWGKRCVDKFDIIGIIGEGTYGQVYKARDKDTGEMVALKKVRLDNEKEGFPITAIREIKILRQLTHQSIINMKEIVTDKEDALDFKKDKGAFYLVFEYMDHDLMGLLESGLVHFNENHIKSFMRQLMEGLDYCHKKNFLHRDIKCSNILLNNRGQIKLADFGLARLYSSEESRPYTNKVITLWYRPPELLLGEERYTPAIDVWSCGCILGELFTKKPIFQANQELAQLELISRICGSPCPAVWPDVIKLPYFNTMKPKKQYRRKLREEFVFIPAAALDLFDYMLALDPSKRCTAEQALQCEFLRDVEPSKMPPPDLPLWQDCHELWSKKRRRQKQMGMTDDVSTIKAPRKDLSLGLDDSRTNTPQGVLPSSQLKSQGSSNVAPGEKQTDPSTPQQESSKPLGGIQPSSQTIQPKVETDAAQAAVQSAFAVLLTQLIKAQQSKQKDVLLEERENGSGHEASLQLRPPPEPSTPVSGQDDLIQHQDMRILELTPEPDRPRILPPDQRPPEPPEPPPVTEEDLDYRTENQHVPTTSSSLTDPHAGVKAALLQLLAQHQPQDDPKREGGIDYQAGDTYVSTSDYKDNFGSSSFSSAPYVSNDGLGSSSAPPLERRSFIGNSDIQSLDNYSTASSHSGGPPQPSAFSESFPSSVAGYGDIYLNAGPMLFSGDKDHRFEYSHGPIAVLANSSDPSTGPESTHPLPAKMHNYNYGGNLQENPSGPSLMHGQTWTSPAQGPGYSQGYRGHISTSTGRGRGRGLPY
Chain of CDK15/Cyclin Y (Q96Q40 whole entry): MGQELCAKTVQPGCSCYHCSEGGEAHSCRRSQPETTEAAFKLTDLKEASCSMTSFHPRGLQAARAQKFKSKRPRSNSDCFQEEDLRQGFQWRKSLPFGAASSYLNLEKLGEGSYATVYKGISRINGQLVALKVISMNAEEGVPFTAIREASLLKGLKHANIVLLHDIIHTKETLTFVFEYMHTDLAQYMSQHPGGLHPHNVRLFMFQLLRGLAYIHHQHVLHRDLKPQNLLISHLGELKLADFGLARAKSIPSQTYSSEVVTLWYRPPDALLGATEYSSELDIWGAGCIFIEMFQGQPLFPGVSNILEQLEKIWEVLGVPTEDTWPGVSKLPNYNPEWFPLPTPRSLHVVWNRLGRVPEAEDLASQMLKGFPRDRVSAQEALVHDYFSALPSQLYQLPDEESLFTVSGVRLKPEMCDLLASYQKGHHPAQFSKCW
Chain of CDK15/Cyclin Y (Q8ND76 whole entry partner): as the sequence (Q8ND76 whole entry partner) above

Cc1c(Br)c(Br)c2c3c1nc(N1CCNCC1)n3CCC2.Cl [SEL 120-34A]
CDK1/E1 Inhibition at 10µM (%) (CDK1/Cyclin E1; average of experiments): 37.6%
CDK1/E1 Inhibition at 10µM (%) (CDK1/Cyclin E1; independent experiment 1): 21.0%
CDK1/E1 Inhibition at 10µM (%) (CDK1/Cyclin E1; independent experiment 2): 54.1%
CDK16/Y Inhibition at 10µM (%) (CDK16/Cyclin Y; independent experiment 1): 51.2%
CDK16/Y Inhibition at 10µM (%) (CDK16/Cyclin Y; independent experiment 2): 12.7%
CDK18/Y Inhibition at 10µM (%) (CDK18/Cyclin Y; average of experiments): 39.4%
CDK18/Y Inhibition at 10µM (%) (CDK18/Cyclin Y; independent experiment 1): 47.0%
CDK18/Y Inhibition at 10µM (%) (CDK18/Cyclin Y; independent experiment 2): 31.9%
CDK5/CDK5R1 Inhibition at 10µM (%) (CDK5/CDK5R1; average of experiments): 46.5%
CDK5/CDK5R1 Inhibition at 10µM (%) (CDK5/CDK5R1; independent experiment 1): 31.2%
CDK5/CDK5R1 Inhibition at 10µM (%) (CDK5/CDK5R1; independent experiment 2): 61.8%
CDK14/Y Inhibition at 10µM (%) (CDK14/Cyclin Y; average of experiments): 26.1%
CDK14/Y Inhibition at 10µM (%) (CDK14/Cyclin Y; independent experiment 1): 21.7%
CDK14/Y Inhibition at 10µM (%) (CDK14/Cyclin Y; independent experiment 2): 30.4%
CDK6/D1 Inhibition at 10µM (%) (CDK6/Cyclin D1; average of experiments): 31.6%
CDK6/D1 Inhibition at 10µM (%) (CDK6/Cyclin D1; independent experiment 1): 10.1%
CDK6/D1 Inhibition at 10µM (%) (CDK6/Cyclin D1; independent experiment 2): 53.1%
CDK9/K Inhibition at 10µM (%) (CDK9/Cyclin K; average of experiments): 71.2%
CDK9/K Inhibition at 10µM (%) (CDK9/Cyclin K; independent experiment 1): 54.9%
CDK9/K Inhibition at 10µM (%) (CDK9/Cyclin K; independent experiment 2): 87.6%
CDK12/K Inhibition at 10µM (%) (CDK12/Cyclin K; average of experiments): 44.4%
CDK12/K Inhibition at 10µM (%) (CDK12/Cyclin K; independent experiment 1): 40.8%
CDK12/K Inhibition at 10µM (%) (CDK12/Cyclin K; independent experiment 2): 48.0%
CDK7 Inhibition at 10µM (%) (CDK7; average of experiments): 37.0%
CDK7 Inhibition at 10µM (%) (CDK7; independent experiment 1): 34.4%
CDK7 Inhibition at 10µM (%) (CDK7; independent experiment 2): 39.7%
CDK19/C Inhibition at 10µM (%) (CDK19/Cyclin C; average of experiments): 99.2%
CDK19/C Inhibition at 10µM (%) (CDK19/Cyclin C; independent experiment 1): 96.4%
CDK19/C Inhibition at 10µM (%) (CDK19/Cyclin C; independent experiment 2): 102.0%
IC50 (CDK19/Cyclin C; read-out: CDK19/C IC50, independent experiment 1): 120 nM
IC50 (CDK19/Cyclin C; read-out: CDK19/C IC50, independent experiment 2): 140 nM
IC50 (CDK19/Cyclin C; read-out: CDK19/Y IC50, average (± SEM where n=3)): 130 nM
CDK4/D1 Inhibition at 10µM (%) (CDK4/Cyclin D1; average of experiments): 37.4%
CDK4/D1 Inhibition at 10µM (%) (CDK4/Cyclin D1; independent experiment 1): 12.4%
CDK4/D1 Inhibition at 10µM (%) (CDK4/Cyclin D1; independent experiment 2): 62.4%
CDK3/E1 Inhibition at 10µM (%) (CDK3/Cyclin E1; average of experiments): 33.7%
CDK3/E1 Inhibition at 10µM (%) (CDK3/Cyclin E1; independent experiment 1): 26.5%
CDK3/E1 Inhibition at 10µM (%) (CDK3/Cyclin E1; independent experiment 2): 40.8%
CDK11a/L2 Inhibition at 10µM (%) (CDK11A/Cyclin L2; average of experiments): 43.7%
CDK11a/L2 Inhibition at 10µM (%) (CDK11A/Cyclin L2; independent experiment 1): 31.1%
CDK11a/L2 Inhibition at 10µM (%) (CDK11A/Cyclin L2; independent experiment 2): 56.3%
CDK2/E1 Inhibition at 10µM (%) (CDK2/Cyclin E1; average of experiments): 22.7%
CDK2/E1 Inhibition at 10µM (%) (CDK2/Cyclin E1; independent experiment 1): 24.3%
CDK2/E1 Inhibition at 10µM (%) (CDK2/Cyclin E1; independent experiment 2): 21.2%
CDK13/K Inhibition at 10µM (%) (CDK13/Cyclin K; average of experiments): 36.8%
CDK13/K Inhibition at 10µM (%) (CDK13/Cyclin K; independent experiment 1): 29.4%
CDK13/K Inhibition at 10µM (%) (CDK13/Cyclin K; independent experiment 2): 44.2%
CDK15/Y Inhibition at 10µM (%) (CDK15/Cyclin Y; average of experiments): 37.3%
CDK15/Y Inhibition at 10µM (%) (CDK15/Cyclin Y; independent experiment 1): 38.3%
CDK15/Y Inhibition at 10µM (%) (CDK15/Cyclin Y; independent experiment 2): 36.3%
CDK10/L2 Inhibition at 10µM (%) (CDK10/Cyclin L2; average of experiments): 33.9%
CDK10/L2 Inhibition at 10µM (%) (CDK10/Cyclin L2; independent experiment 1): 26.3%
CDK10/L2 Inhibition at 10µM (%) (CDK10/Cyclin L2; independent experiment 2): 41.4%
CDK11b/L2 Inhibition at 10µM (%) (CDK11B/Cyclin L2; average of experiments): 38.1%
CDK11b/L2 Inhibition at 10µM (%) (CDK11B/Cyclin L2; independent experiment 1): 35.0%
CDK11b/L2 Inhibition at 10µM (%) (CDK11B/Cyclin L2; independent experiment 2): 41.2%
CDK8/C Inhibition at 10µM (%) (CDK8/Cyclin C; average of experiments): 97.3%
CDK8/C Inhibition at 10µM (%) (CDK8/Cyclin C; independent experiment 1): 96.1%
CDK8/C Inhibition at 10µM (%) (CDK8/Cyclin C; independent experiment 2): 98.6%
IC50 (CDK8/Cyclin C; average (± SEM where n=3)): 75 nM
IC50 (CDK8/Cyclin C; independent experiment 1): 73 nM
IC50 (CDK8/Cyclin C; independent experiment 2): 77 nM
CDK17/Y Inhibition at 10µM (%) (CDK17/Cyclin Y; average of experiments): 38.7%
CDK17/Y Inhibition at 10µM (%) (CDK17/Cyclin Y; independent experiment 1): 45.5%
CDK17/Y Inhibition at 10µM (%) (CDK17/Cyclin Y; independent experiment 2): 32.0%
CDK20/H Inhibition at 10µM (%) (CDK20/Cyclin H; independent experiment 1): 7.8%
CDK20/H Inhibition at 10µM (%) (CDK20/Cyclin H; independent experiment 2): 31.3%
